Tested on: tobacco line pACAG029#4
Settings: in vivo
Excerpt: FIG. 36—tet-Inducible Herbicide Resistance: Spray Test of F1 Seedlings and Seeds of Tobacco Line pACAG029#4. Seedlings at different stages of development (1 and 2 weeks old), produced by germination in 2.5″×2.5″ pots with Metro mix, were used for assessing tet inducible herbicide resistance in a post-emergence test. For pre-emergency application, seeds were sown on the Metro mix right before PURSUIT®, application. 15-20 seeds were placed in each pot. Pots were sprayed with doxycycline premixed with PURSUIT®, each at different rates. The test was evaluated two weeks after the spray. Each pot in the figure represents a unique experiment in terms of the combination of chemical rates and the stage of seedling development. As shown in the figure, the rate of herbicide resistance directly corresponded with increased doxycycline application rates.
Induction of herbicide resistance in plants growing in soil has been investigated. Transgenic F1 heterozygous tobacco seeds of the line pACAG029#4 (this line has been shown elsewhere herein to provide the best repression/induction in tissue culture tests) ere used for the spray test. Seedlings at different stages of development (1 and 2 weeks old) produced by germination of seeds in 2.5″×2.5″ pots with Metro mix were used for post-emergence test. For pre-emergency application, seeds were sown on the Metro mix right before the application of herbicide. […]

## C[C@H]1c2cccc(O)c2C(=O)C2=C(O)[C@]3(O)C(=O)C(C(N)=O)=C(O)[C@@H](N(C)C)[C@@H]3[C@@H](O)[C@@H]21 [doxycycline]
  plant injury in spray test: caused some injury and stunted growth of plants
